Tests used:
[1] = Particle size distribution by dynamic light scattering (Zetasizer); assay type: physicochemical; conditions: in length
Method: Results: Particle size distribution as determined by dynamic light scattering of Compound 1 lysine salt nanosuspension post milling is shown below in Table 1B. Samples for particle size distribution was prepared by diluting the Nano milled sample by 100-fold with Di-water. Zetasizer was utilized to measure particle size distribution. PdI is the representation of the distribution of size populations within a given sample. This is a numerical range from 0.0 (for a perfectly uniform sample) through 1.0 (for a highly polydisperse sample with multiple particle size populations). The value D10 refers to a diameter of particles in the sample wherein 10% of the particles in the sample have a diameter smaller than this value (118.8 nm). The value D50 refers to a diameter of particles in the sample wherein 50% of the particles have a diameter smaller than this value (249.0 nm). The value D90 refers to a diameter of particles in the sample wherein 90% of the particles in the sample have a diameter smaller than this value (611 nm).
The stability of the nanosuspension based on particle size distribution under refrigerated condition and room condition is shown below in Table 2.

[2] = In vitro dissolution testing (USP Apparatus 1, basket); assay type: physicochemical; conditions: DI water
Method: Dissolution and assay testing for API, F1, F7, F9, F10, F11 and F12.
• 6. Transfer 500 mL of DI water dissolution medium into each vessel. • 7. Equilibrate the dissolution medium to 37.0±0.5° C. • 8. Transfer 600 mg of each formulation granule into a capsule. • 9. Transfer a capsule into a basket and lower to the position. Start stirring at 100 RPM. • 10. At the stated time(s), sample 1 mL solutions by auto-sampler. Assay Sample Preparation (0.3 mg/mL): • 11. Weigh out 18 mg of granules into a […] volumetric flask. • 12. Dissolve and dilute up to the volume with Diluent (50% ACN in H2O). • 13. Mix well.

CC(C)c1ccc(N(C)c2ccc3c(c2)OCC[C@H]3CNc2cnccc2C(=O)O)cc1.NCCCC[C@H](N)C(=O)O [Compound 1 Lysine salt, 3-({[(4R)-7-{methyl[4-(propan-2-yl)phenyl]amino}-3,4-dihydro-2H-1-benzopyran-4-yl]methyl}amino)pyridine-4-carboxylic acid, L-lysine salt]
initial particle size prior to milling [1]: 6-15 micrometer | release after 120 minutes [2]: no release at all

Source: patent publication US20250134874A1, “PHARMACEUTICAL FORMULATIONS COMPRISING 3-({[(4R)-7-{METHYL[4-(PROPAN-2-YL)PHENYL]AMINO}-3,4-DIHYDRO-2H-1-BENZOPYRAN-4-YL]METHYL}AMINO)PYRIDINE-4-CARBOXYLIC ACID” (TACHYON THERAPEUTICS, INC., priority 2021, published 2025)
